Experimental data published in the NIST ThermoML archive (doi:10.1021/je700088n).
± gives the expanded uncertainty stated by the source.

What was measured:
[1] = Crystal; for Normal melting temperature: DTA; for mass density: 298.1 K, 101.33 kPa, digital densimeter
[2] = Molar enthalpy of transition or fusion; conditions: Crystal; DSC

Molecule `Cc1cccc2ccccc12` [1-methylnaphthalene] has a Normal melting temperature [1] of -30.9 ± 0.5 °C.
With `Cc1ccc2ccc(C)cc2c1` [2,7-dimethylnaphthalene] the mass density [1] was 1010 ± 10 kg/m3, the Normal melting temperature [1] was 97.00 ± 0.5 °C and the “Molar enthalpy of transition or fusion” value [2] was 5.31 ± 0.158 kcal/mol.
For `Cc1ccc(C)c2ccccc12` [1,4-dimethylnaphthalene], the Normal melting temperature [1] was 6.00 ± 0.5 °C and the “Molar enthalpy of transition or fusion” value [2] was 2.53 ± 0.0884 kcal/mol.
For `Cc1cccc2cccc(C)c12` [1,8-dimethylnaphthalene], the Normal melting temperature [1] was 65.00 ± 0.5 °C and the “Molar enthalpy of transition or fusion” value [2] was 4.43 ± 0.134 kcal/mol.
For `Cc1ccc2c(C)cccc2c1` [1,6-dimethylnaphthalene], the Normal melting temperature [1] was -16.20 ± 0.5 °C and the “Molar enthalpy of transition or fusion” value [2] was 2.03 ± 0.0741 kcal/mol.
With `Cc1cccc2c(C)cccc12` [1,5-dimethylnaphthalene] the Normal melting temperature [1] was 82.00 ± 0.5 °C and the “Molar enthalpy of transition or fusion” value [2] was 4.78 ± 0.143 kcal/mol.
In the case of `Cc1ccc2cc(C)ccc2c1` [2,6-dimethylnaphthalene], the mass density [1] is reported as 1021 ± 10 kg/m3, the Normal melting temperature [1] is reported as 112.00 ± 0.5 °C and the “Molar enthalpy of transition or fusion” value [2] is reported as 6.05 ± 0.174 kcal/mol.
Molecule `Cc1ccc2ccccc2c1` [2-methylnaphthalene] has a Normal melting temperature [1] of 34.70 ± 0.5 °C.
For `Cc1cc2ccccc2cc1C` [2,3-dimethylnaphthalene], the mass density [1] was 1012 ± 10 kg/m3, the Normal melting temperature [1] was 104.00 ± 0.5 °C and the “Molar enthalpy of transition or fusion” value [2] was 5.73 ± 0.167 kcal/mol.
